# Measurements as given in paper PMC2749862, “Glucocorticoids with different chemical structures but similar glucocorticoid receptor potency regulate subsets of common and unique genes in human trabecular meshwork cells” (BMC Medical Genomics, 2009).
# Experiments:
# glucocorticoid receptor [1] = biological target: T1, glucocorticoid receptor (Homo sapiens, UniProt P04150); assay: GR radiolabeled competitive binding assay (IM-9 cell cytosol, [3H]dexamethasone; Cerep)
# T1 sequence (P04150 524-777 limits assumed): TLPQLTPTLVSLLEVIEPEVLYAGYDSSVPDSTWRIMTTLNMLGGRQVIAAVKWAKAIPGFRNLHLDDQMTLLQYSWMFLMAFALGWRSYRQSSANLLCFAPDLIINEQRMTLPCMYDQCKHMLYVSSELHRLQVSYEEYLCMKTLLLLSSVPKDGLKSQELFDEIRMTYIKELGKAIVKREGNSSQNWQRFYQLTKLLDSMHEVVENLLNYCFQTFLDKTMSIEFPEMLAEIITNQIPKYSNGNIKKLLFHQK
# Method: GR binding affinity assay was performed at Cerep Inc. (Celle l'Evescault, France), according to an established method. […] Nonspecific binding is determined in the presence of 10 μM triamcinolone. Following incubation, the samples are filtered rapidly under vacuum through glass fiber filters (GF/B, Packard) presoaked with 0.3% Poly(ethyleneimine) and rinsed several times with ice-cold 50 mM Tris-HCl using a 96-sample cell harvester (Unifilter, Packard). The filters are dried and counted for radioactivity in a scintillation counter (Topcount, Packard) using a scintillation cocktail (Microscint 0, Packard). The results are expressed as percent inhibition of the control radioligand specific binding. The IC50 values (concentration causing half-maximal inhibition of control specific binding) and Hill coefficients (nH) were determined by non-linear regression analysis of the competition curves generated with mean replicate values using Hill equation curve fitting (Y = D + [(A - D)/(1 + (C/C50)^nH)], where Y = specific binding, D = minimum specific binding, A = maximum specific binding, C = compound concentration, C50 = IC50, and nH = slope factor). […] The inhibition constants (Ki) were calculated using the Cheng Prusoff equation (Ki = IC50/(1+(L/KD)), where L = concentration of radioligand in the assay, and KD = affinity of the radioligand for the receptor). […] The GR binding assay was performed in duplicate.
# [2] = human, following local administration; cited from earlier work
# glucocorticoid receptor [3] = biological target: T1, glucocorticoid receptor; assay: GeneBLAzer beta-lactamase reporter gene assay, GR transactivation in MMTV-bla HeLa CellSensor cells; type: cell-based; settings: 5 hr treatment
# Method: GR transactivation activity was assessed by the Invitrogen SelectScreen Profiling Service (Madison, WI), using Invitrogen GeneBLAzer beta-lactamase reporter gene technology. Profiling was performed using human HeLa cells stably transfected with an expression construct containing β-lactamase cDNA under the control of the MMTV response element previously identified as a GR response element (MMTV-bla HeLa CellSensor®). The MMTV-bla HeLa cells were plated in 384-well plates in 32 μl assay medium (OPTIMEM + 1% charcoal/dextran stripped FBS) at a density of 10,000 cells/well and incubated overnight. […] The β-lactamase activity of each sample was determined by adding 8 μl of 6-fold concentrated LiveBLAzer™ substrate solution to the samples followed by two hours of incubation at room temperature in a Tecan Safire2 plate reader using the appropriate LiveBLAzer™ filter settings. GC treatment was performed in 15-point dose response using a three-fold dilution series starting with a maximum compound concentration of 10 μM. Each data point represents a triplicate sample (n = 3). Assay reproducibility was determined by calculating Z' values for untreated vs. maximum stimulation. The GeneBLAzer assay was performed twice.
# TM 86 cells = assay: Microarray gene expression profiling in TM 86 cells (with IPA and GoMiner analysis); type: cell-based, human; settings: 1 μM, 24 hr
# Description: (§1) Cells were maintained in low glucose Dulbecco's Modified Eagle Medium (DMEM, Invitrogen, Carlsbad, CA) supplemented with 10% (vol/vol) FBS (American Type Culture Collection, Manassas, VA), 1% (vol/vol) penicillin and streptomycin (Invitrogen). Cells from the human HeLa cervical adenocarcinoma cell line (American Type Culture Collection) were maintained in α-MEM medium supplemented with 10% (v/v) FBS, 1% (v/v) penicillin and streptomycin. All cells were used within passages 3 to 6. […] Cells were maintained for one week with medium renewal every other day. The day before the experiment, confluent TM were washed once with phosphate-buffered saline (PBS) and then the cells were maintained in 1% FBS-containing medium with antibiotics. […] Control cells were treated with 0.1%(v/v) dimethylsulfoxide (DMSO). At the end of GC treatment, supernatant was discarded and the cell monolayer was kept frozen at -80°C for subsequent total RNA extraction and gene expression profiling. […] Briefly, RNA was isolated from flash frozen cell culture plates using RNeasy Mini columns (Qiagen, Valencia, CA) according to the manufacturer's protocol. There were three biological replicates per treatment condition. The quantity and purity of the extracted RNA was evaluated using a NanoDrop ND-1000 spectrophotometer (Nanodrop Technologies, Wilmington, DE, USA) and its integrity measured using an Agilent Bioanalyzer. […] The amount and quality of the fluorescently labeled cRNA was assessed using a NanoDrop ND-1000 spectrophotometer and an Agilent Bioanalyzer. An equal amount of Cy3-labeled cRNA (1.6 μg) was hybridized to the Agilent Human Whole Genome Oligo Microarray (Agilent Technologies) for 17 hours, prior to washing and scanning. Data were extracted from scanned images using Agilent's Feature Extraction Software (Agilent Technologies) using default settings. […] The full complement of microarray data has been deposited in the NIH/NLM Gene Expression Omnibus (GEO accession # GSE16643). […] The lists of differentially expressed genes were also applied to global functional, network and canonical pathway analyses using Ingenuity Pathway Analysis (Ingenuity® Systems, Redwood City, CA).
# TM 93 cells = assay: Microarray gene expression profiling in TM 93 cells (with IPA and GoMiner analysis); type: cell-based, human; settings: 1 μM, 24 hr
# Description: as §1
smiles,measurement,setting,value
"CC1(C)O[C@@H]2C[C@H]3[C@@H]4CCC5=CC(=O)C=C[C@]5(C)[C@@]4(F)[C@@H](O)C[C@]3(C)[C@]2(C(=O)CO)O1 [TA, triamcinolone acetonide]",nH (Hill coefficient),glucocorticoid receptor [1]; IM-9 cell cytosol competition curves,1.05 ± 0.07
same,Ki,"glucocorticoid receptor [1]; IM-9 cell cytosol, calculated by Cheng Prusoff equation",0.72 ± 0.24 nM
same,IC50,glucocorticoid receptor [1]; read-out: GR binding affinity IC50,1.45 ± 0.5 nM
same,ocular tissue concentrations,[2],> 1 µM
same,EC50,glucocorticoid receptor [3],1.29 ± 0.28 nM
same,function of significantly regulated transcripts (Ingenuity Pathway Analysis),TM 86 cells,cell morphology
same,number of genes uniquely regulated by each GC,TM 86 cells,388
same,significantly regulated biological process (GoMiner gene ontology),TM 86 cells,mitotic cell cycle
same,ANGPTL4 FC (fold change),TM 86 cells; microarray,7.9 fold
same,ANGPTL7 FC (fold change),TM 86 cells; microarray,26.5 fold
same,AQP1 FC (fold change),TM 86 cells; microarray,-5.1 fold
same,CCRL1 FC (fold change),TM 86 cells; microarray,-3.4 fold
same,CXADR FC (fold change),TM 86 cells; microarray,-4.8 fold
same,ENST00000344214 FC (fold change),TM 86 cells; microarray,-3.1 fold
same,FKBP5 FC (fold change),TM 86 cells; microarray,12.5 fold
same,GABRB1 FC (fold change),TM 86 cells; microarray,-4.9 fold
same,ITGA10 FC (fold change),TM 86 cells; microarray,17.7 fold
same,KAL1 FC (fold change),TM 86 cells; microarray,-6.7 fold
same,KCNB1 FC (fold change),TM 86 cells; microarray,19.9 fold
same,KIF4A FC (fold change),TM 86 cells; microarray,-4.1 fold
same,KLF15 FC (fold change),TM 86 cells; microarray,11.1 fold
same,LSP1 FC (fold change),TM 86 cells; microarray,15.4 fold
same,MXRA5 FC (fold change),TM 86 cells; microarray,-5.4 fold
same,MYOC FC (fold change),TM 86 cells; microarray,6.7 fold
same,PCDH19 FC (fold change),TM 86 cells; microarray,-5.0 fold
same,PER3 FC (fold change),TM 86 cells; microarray,-7.0 fold
same,RASL11B FC (fold change),TM 86 cells; microarray,-4.0 fold
same,RGC32 FC (fold change),TM 86 cells; microarray,>100 fold
same,SAA1 FC (fold change),TM 86 cells; microarray,35.3 fold
same,ZBTB16 FC (fold change),TM 86 cells; microarray,8.1 fold
same,function of significantly regulated genes (Ingenuity Pathway Analysis),TM 93 cells,cell adhesion
same,number of genes uniquely regulated by each GC,TM 93 cells,555
same,significantly regulated biological process (GoMiner gene ontology),TM 93 cells,smooth muscle cell proliferation
same,ANGPTL4 FC (fold change),TM 93 cells; microarray,5.3 fold
same,ANGPTL7 FC (fold change),TM 93 cells; microarray,20.5 fold
same,AQP1 FC (fold change),TM 93 cells; microarray,-2.8 fold
same,CCRL1 FC (fold change),TM 93 cells; microarray,-2.1 fold
same,CXADR FC (fold change),TM 93 cells; microarray,-2.6 fold
same,FKBP5 FC (fold change),TM 93 cells; microarray,5.8 fold
same,GABRB1 FC (fold change),TM 93 cells; microarray,-2.6 fold
same,ITGA10 FC (fold change),TM 93 cells; microarray,5.6 fold
same,KAL1 FC (fold change),TM 93 cells; microarray,-3.3 fold
same,KCNB1 FC (fold change),TM 93 cells; microarray,11.3 fold
same,KIF4A FC (fold change),TM 93 cells; microarray,-2.3 fold
same,KLF15 FC (fold change),TM 93 cells; microarray,3.9 fold
same,MXRA5 FC (fold change),TM 93 cells; microarray,-4.5 fold
same,MYOC FC (fold change),TM 93 cells; microarray,2.6 fold
same,OCA2 FC (fold change),TM 93 cells; microarray,>100 fold
same,PCDH19 FC (fold change),TM 93 cells; microarray,-3.3 fold
same,PER3 FC (fold change),TM 93 cells; microarray,-3.8 fold
same,PF4 FC (fold change),TM 93 cells; microarray,4.4 fold
same,RGC32 FC (fold change),TM 93 cells; microarray,19.9 fold
same,SAA1 FC (fold change),TM 93 cells; microarray,11.9 fold
same,ZBTB16 FC (fold change),TM 93 cells; microarray,5.5 fold
